Source: US20140051679A1, “KINASE INHIBITORS AND METHOD OF TREATING CANCER WITH SAME” (UNIVERISTY HEALTH NETWORKS, priority 2011, published 2014)

Columns and labels:
[1] = test system: HCT116 colon cancer cells; assay: Cell growth inhibition, Sulforhodamine B assay, HCT116; type: cell-based; conditions: Homo sapiens, HCT-116, 120 h, 5 days culture, SRB assay, read-out: Cell Line GI50 Range HCT116
Aurora B = target: T1, Aurora B (Homo sapiens, UniProt Q96GD4); assay: Aurora B inhibition assay (Z-Lyte); type: biochemical; conditions: 28 nM Aurora B, 128 μM ATP; read-out: IC50 Ranges Aurora B
T1 construct: purchased Invitrogen PV3970
Procedure: Aurora B inhibition was determined using the Z-Lyte assay kit from Invitrogen. The assay was performed using the recommended manufacturer's instructions with 128 μM ATP and 28 nM Aurora B (Invitrogen cat #PV3970). The % inhibition values were determined according to the manufacturer's directions and IC50 values were obtained using a non-linear 4 point logistic curve fit (XLfit4, IDBS)

[2] = test system: MDA-MB-468 breast cancer cells; assay: Cell growth inhibition, Sulforhodamine B assay, MDA-MB-468; type: cell-based; conditions: Homo sapiens, 120 h, 5 days culture, SRB assay, read-out: Cell Line GI50 Range MDA-MB-468
[3] = test system: MDA-MB-231 breast cancer cells; assay: Cell growth inhibition, Sulforhodamine B assay, MDA-MB-231; type: cell-based; conditions: Homo sapiens, 120 h, 5 days culture, SRB assay, read-out: Cell Line GI50 Range MDA-MB-231
[4] = test system: OVCAR-3 ovarian cancer cells; assay: Cell growth inhibition, Sulforhodamine B assay, OVCAR-3; type: cell-based; conditions: Homo sapiens, 120 h, 5 days culture, SRB assay, read-out: Cell Line GI50 Range OVCAR-3
HT29 colon cancer cells = assay: Cell growth inhibition, Sulforhodamine B assay, HT29; type: cell-based; conditions: Homo sapiens, HT-29, 120 h, 5 days culture, SRB assay, read-out: Cell Line GI50 Range HT29
human PLK4 = target: T2, human PLK4 (Homo sapiens, UniProt O00444); assay: PLK4 inhibition assay (indirect ELISA); type: biochemical; conditions: GST-PLK4 4 nM, 15 μM ATP; read-out: IC50 Ranges PLK4
T2 construct: amino terminal GST fusion of residues 1-391 of human PLK4; made in house; host or cells: E. coli
T2 sequence (O00444 1-391): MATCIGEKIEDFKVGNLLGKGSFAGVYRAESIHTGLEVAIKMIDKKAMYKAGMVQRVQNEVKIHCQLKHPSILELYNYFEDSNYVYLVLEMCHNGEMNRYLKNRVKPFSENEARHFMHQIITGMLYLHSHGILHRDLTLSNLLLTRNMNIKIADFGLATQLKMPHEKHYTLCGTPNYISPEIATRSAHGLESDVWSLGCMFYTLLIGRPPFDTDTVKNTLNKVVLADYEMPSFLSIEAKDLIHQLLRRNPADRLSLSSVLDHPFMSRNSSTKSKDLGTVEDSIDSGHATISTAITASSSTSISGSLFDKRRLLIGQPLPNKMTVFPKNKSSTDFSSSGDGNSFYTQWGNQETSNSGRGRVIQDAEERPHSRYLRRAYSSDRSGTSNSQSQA
Summary of the method: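 Compounds were tested either at a single 10 μM dose or across 10-point titrations (typically 0.5 to 0.001 μM), preincubated 15 min with 4 nM GST-PLK4 (human 1-391, dephosphorylated) before 15 μM ATP was added. MBP substrate phosphorylation over 30 min, pH 7.5 HEPES/MgCl2 buffer, read by HRP/TMB ELISA (450 nm). % inhibition vs. high-activity control; IC50 by logistic fit.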

human TTK = target: T3, human TTK (Homo sapiens, UniProt P33981); assay: TTK inhibition assay (indirect ELISA); type: biochemical; conditions: GST-TTK 0.68 nM, 16 μM ATP; read-out: IC50 Ranges TTK
T3 construct: amino terminal GST fusion of full length human TTK; purchased Invitrogen
T3 sequence (P33981 1-857): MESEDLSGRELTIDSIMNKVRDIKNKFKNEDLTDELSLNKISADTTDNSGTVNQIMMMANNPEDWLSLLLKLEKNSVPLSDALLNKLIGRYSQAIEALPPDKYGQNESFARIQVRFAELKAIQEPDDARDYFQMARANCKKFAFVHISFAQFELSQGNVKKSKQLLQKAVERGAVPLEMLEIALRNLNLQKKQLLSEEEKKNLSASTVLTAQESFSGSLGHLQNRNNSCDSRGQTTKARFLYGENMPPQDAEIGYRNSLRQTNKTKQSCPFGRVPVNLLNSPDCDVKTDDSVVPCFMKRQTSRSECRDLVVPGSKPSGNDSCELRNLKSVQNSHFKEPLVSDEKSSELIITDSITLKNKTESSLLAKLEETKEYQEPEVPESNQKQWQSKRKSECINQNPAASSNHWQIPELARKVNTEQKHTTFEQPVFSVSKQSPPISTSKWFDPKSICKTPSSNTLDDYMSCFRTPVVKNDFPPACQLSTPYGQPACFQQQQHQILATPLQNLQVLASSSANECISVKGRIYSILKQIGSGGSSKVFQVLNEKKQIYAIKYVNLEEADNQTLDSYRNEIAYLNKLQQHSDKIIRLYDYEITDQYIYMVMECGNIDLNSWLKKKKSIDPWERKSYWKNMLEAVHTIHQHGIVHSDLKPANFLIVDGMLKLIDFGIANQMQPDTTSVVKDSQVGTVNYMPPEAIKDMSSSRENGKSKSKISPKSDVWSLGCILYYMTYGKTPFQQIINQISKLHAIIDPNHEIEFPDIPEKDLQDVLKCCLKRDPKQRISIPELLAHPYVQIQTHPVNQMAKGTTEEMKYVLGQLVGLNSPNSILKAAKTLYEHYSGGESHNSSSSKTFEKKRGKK

[5] = test system: PA-1 ovarian cancer cells; assay: Cell growth inhibition, Sulforhodamine B assay, PA-1; type: cell-based; conditions: 120 h, 5 days culture, SRB assay, read-out: Cell Line GI50 Range PA-1

T1 sequence (Q96GD4 whole entry): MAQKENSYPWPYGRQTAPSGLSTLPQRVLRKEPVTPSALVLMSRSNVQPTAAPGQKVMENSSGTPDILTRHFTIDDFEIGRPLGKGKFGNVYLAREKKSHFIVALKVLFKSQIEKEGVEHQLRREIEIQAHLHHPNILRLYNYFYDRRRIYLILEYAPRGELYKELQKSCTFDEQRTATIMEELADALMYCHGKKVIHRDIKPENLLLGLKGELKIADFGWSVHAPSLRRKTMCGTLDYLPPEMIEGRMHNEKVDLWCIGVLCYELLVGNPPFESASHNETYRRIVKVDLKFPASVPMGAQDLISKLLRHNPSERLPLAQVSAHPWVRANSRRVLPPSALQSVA

Row | Structure (SMILES) | GI50 [1] | IC50 (Aurora B) | GI50 [2] | GI50 [3] | GI50 [4] | GI50 (HT29 colon cancer cells) | IC50 (human PLK4) | IC50 (human TTK) | GI50 [5]
1 | CN1CCC(Oc2ccc(-c3n[nH]c4ccc(NC(=O)C(c5ccsc5)C5CCCC5)cc34)cc2)CC1 (stereo not shown) [Example A36, 2-cyclopentyl-N-(3-(4-((1-methylpiperidin-4-yl)oxy)phenyl)-1H-indazol-5-yl)-2-(thiophen-3-yl)acetamide] | ≤ 5 µM | ≤ 5 µM | ≤ 5 µM | ≤ 5 µM | ≤ 5 µM | ≤ 5 µM | ≤ 5 µM | ≤ 5 µM | 
2 | C[C@H](NC(=O)c1ccc2[nH]nc(-c3ccc(OC4CCN(C)CC4)cc3)c2c1)C1CCCCC1 [Example A38, (S)—N-(1-cyclohexylethyl)-3-(4-((1-methylpiperidin-4-yl)oxy)phenyl)-1H-indazole-5-carboxamide] | ≤ 5 µM | ≤ 5 µM | ≤ 5 µM | ≤ 5 µM | ≤ 5 µM | ≤ 5 µM | ≤ 5 µM | ≤ 5 µM | 
3 | CN(C)CCCOc1ccc(-c2n[nH]c3ccc(NC(=O)C(c4ccsc4)N4CCCC4)cc23)cc1 (stereo not shown) [Example A43, N-(3-(4-(3-(dimethylamino)propoxy)phenyl)-1H-indazol-5-yl)-2-(pyrrolidin-1-yl)-2-(thiophen-3-yl)acetamide] | ≤ 5 µM | ≤ 5 µM | ≤ 5 µM | ≤ 5 µM | ≤ 5 µM | ≤ 5 µM | ≤ 5 µM | ≤ 5 µM | 
4 | O=C(Nc1ccc2[nH]nc(-c3ccc(OCCN4CCCC4)cc3)c2c1)C(c1ccsc1)N1CCCC1 (stereo not shown) [Example A44, 2-(pyrrolidin-1-yl)-N-(3-(4-(2-(pyrrolidin-1-yl)ethoxy)phenyl)-1H-indazol-5-yl)-2-(thiophen-3-yl)acetamideamide] | ≤ 5 µM | ≤ 5 µM | ≤ 5 µM | ≤ 5 µM | ≤ 5 µM | ≤ 5 µM | ≤ 5 µM | ≤ 5 µM | 
5 | O=C(Nc1ccc2[nH]nc(-c3ccc(OCCCN4CCOCC4)cc3)c2c1)C(c1ccsc1)N1CCCC1 (stereo not shown) [Example A45, N-(3-(4-(3-morpholinopropoxy)phenyl)-1H-indazol-5-yl)-2-(pyrrolidin-1-yl)-2-(thiophen-3-yl)acetamide] | ≤ 5 µM | ≤ 5 µM | ≤ 5 µM | ≤ 5 µM | 5 to 20 µM | ≤ 5 µM | ≤ 5 µM | ≤ 5 µM | 
6 | C[C@@H](NC(=O)c1ccc2[nH]nc(-c3ccc(OC4CCN(C)CC4)cc3)c2c1)c1cccs1 [Example A55, (R)-3-(4-((1-methylpiperidin-4-yl)oxy)phenyl)-N-(1-(thiophen-2-yl)ethyl)-1H-indazole-5-carboxamide] | ≤ 5 µM | ≤ 5 µM | ≤ 5 µM | ≤ 5 µM | ≤ 5 µM | ≤ 5 µM | ≤ 5 µM | ≤ 5 µM | 
7 | CN1CCC(Oc2ccc(-c3n[nH]c4ccc(NC(=O)C(c5ccsc5)N5CCCC5)cc34)cc2Cl)CC1 (stereo not shown) [Example A57, N-(3-(3-chloro-4-((1-methylpiperidin-4-yl)oxy)phenyl)-1H-indazol-5-yl)-2-(pyrrolidin-1-yl)-2-(thiophen-3-yl)acetamide] | ≤ 5 µM | ≤ 5 µM | ≤ 5 µM | ≤ 5 µM | ≤ 5 µM | ≤ 5 µM | ≤ 5 µM | ≤ 5 µM | 

Now from value to compound:

Row | GI50 [1] | IC50 (Aurora B) | GI50 [2] | GI50 [3] | GI50 [4] | GI50 (HT29 colon cancer cells) | IC50 (human PLK4) | IC50 (human TTK) | GI50 [5] | Structure (SMILES)
8 | ≤ 5 µM | ≤ 5 µM | ≤ 5 µM | ≤ 5 µM | ≤ 5 µM | ≤ 5 µM | ≤ 5 µM | ≤ 5 µM |  | CC[C@@H](NC(=O)c1ccc2[nH]nc(-c3ccc(N4CCOCC4)cc3)c2c1)c1cccs1 [Example A58, (R)-3-(4-morpholinophenyl)-N-(1-(thiophen-2-yl)propyl)-1H-indazole-5-carboxamide]
9 | ≤ 5 µM | ≤ 5 µM | ≤ 5 µM | ≤ 5 µM | ≤ 5 µM | ≤ 5 µM | ≤ 5 µM | ≤ 5 µM |  | CC[C@@H](NC(=O)c1ccc2[nH]nc(-c3ccc(OC4CCN(C)CC4)cc3)c2c1)c1cccs1 [Example A63, (R)-3-(4-((1-methylpiperidin-4-yl)oxy)phenyl)-N-(1-(thiophen-2-yl)propyl)-1H-indazole-5-carboxamide]
10 | ≤ 5 µM | ≤ 5 µM | ≤ 5 µM | ≤ 5 µM | ≤ 5 µM | ≤ 5 µM | ≤ 5 µM | ≤ 5 µM |  | CCC(NC(=O)c1ccc2[nH]nc(-c3ccc(OC4CCN(C)CC4)cc3)c2c1)C1CCCCC1 (stereo not shown) [Example A69, N-(1-cyclohexylpropyl)-3-(4-((1-methylpiperidin-4-yl)oxy)phenyl)-1H-indazole-5-carboxamide]
11 | ≤ 5 µM | ≤ 5 µM | ≤ 5 µM | ≤ 5 µM | ≤ 5 µM | ≤ 5 µM | ≤ 5 µM | ≤ 5 µM |  | Cc1cc(C)c(NC(=O)Nc2ccc3[nH]nc(-c4ccc(OC5CCN(C)CC5)cc4)c3c2)c(Cl)c1 [Example A77, 1-(2-chloro-4,6-dimethylphenyl)-3-(3-(4-((1-methylpiperidin-4-yl)oxy)phenyl)-1H-indazol-5-yl)urea]
12 | ≤ 5 µM | ≤ 5 µM | ≤ 5 µM |  |  |  | ≤ 5 µM | ≤ 5 µM | ≤ 5 µM | O=C(NC(c1ccsc1)C1CCC1)c1ccc2[nH]nc(-c3ccc(N4CCOCC4)cc3)c2c1 (stereo not shown) [Example A123, N-(cyclobutyl(thiophen-3-yl)methyl)-3-(4-morpholinophenyl)-1H-indazole-5-carboxamide]
13 | ≤ 5 µM | ≤ 5 µM | ≤ 5 µM |  |  |  | ≤ 5 µM | ≤ 5 µM | ≤ 5 µM | COc1cc(-c2n[nH]c3ccc(C(=O)NC(c4ccccn4)C4CC4)cc23)ccc1OC1CCN(C2COC2)CC1 (stereo not shown) [Example A195]
14 | ≤ 5 µM | ≤ 5 µM | ≤ 5 µM |  |  |  | ≤ 5 µM | ≤ 5 µM | ≤ 5 µM | O=C(N[C@@H](c1ccccn1)C1CC1)c1ccc2[nH]nc(-c3ccc(OC4CCN(C5COC5)CC4)cc3)c2c1 [Example A196, (R)—N-(cyclopropyl(pyridin-2-yl)methyl)-3-(4-((1-(oxetan-3-yl)piperidin-4-yl)oxy)phenyl)-1H-indazole-5-carboxamide]
